From patent US12215106B2, “Pharmaceutical compounds and therapeutic methods” (RUTGERS, THE STATE UNIVERSITY OF NEW JERSEY, priority 2018, dated 2025)
Structures can show the parent of a compound that is named as a salt.

Experiments:
in vitro = settings: pH 7.4; for % Remaining at 60 min (Buffer) / % Remaining at 60 min (+NADPH) / % Remaining at 60 min (−NADPH) / Percentage turnover in MLM (percent remaining), 60 min: 1 h; for % Remaining at 60 min (Buffer) / CLh, int / Percentage turnover in MLM (percent remaining), 0 min / Percentage turnover in MLM (percent remaining), 5 min / Percentage turnover in MLM (percent remaining), 15 min / Percentage turnover in MLM (percent remaining), 30 min / % Remaining at 60 min (+NADPH) / % Remaining at 60 min (−NADPH) / Percentage turnover in MLM (percent remaining), 60 min / Metabolic stability in liver microsomes, compound remaining: 1 μM; for CLh, int / Percentage turnover in MLM (percent remaining), 0 min / Percentage turnover in MLM (percent remaining), 5 min / Percentage turnover in MLM (percent remaining), 15 min / Percentage turnover in MLM (percent remaining), 30 min / % Remaining at 60 min (+NADPH) / % Remaining at 60 min (−NADPH) / Percentage turnover in MLM (percent remaining), 60 min / Metabolic stability in liver microsomes, compound remaining / half-life at 1 μM: mouse; for Percentage turnover in MLM (percent remaining), 0 min / Percentage turnover in MLM (percent remaining), 5 min / Percentage turnover in MLM (percent remaining), 15 min / Percentage turnover in MLM (percent remaining), 30 min / % Remaining at 60 min (+NADPH) / % Remaining at 60 min (−NADPH) / Percentage turnover in MLM (percent remaining), 60 min / Metabolic stability in liver microsomes, compound remaining / half-life at 1 μM: microsomes; for Percentage turnover in MLM (percent remaining), 0 min: 0 h; for Percentage turnover in MLM (percent remaining), 15 min: 0.25 h; for Percentage turnover in MLM (percent remaining), 30 min: 0.5 h; for Metabolic stability in liver microsomes, compound remaining: 60 min
Procedure: The objective of the study was to evaluate the metabolic stability of test compounds in liver microsomes from mice (MLM). This was accomplished by incubating test compounds with microsomes and monitoring disappearance with time using LCMS/MS. Imipramine in MLM was run as positive control.
Potassium phosphate buffer (Kphos) was prepared by adding 0.647 g potassium phosphate monobasic (KH2PO4) and 3.527 g potassium phosphate dibasic (K2HPO4) to 400 mL of Milli-Q water. pH of the buffer was adjusted to 7.4 and volume was made up to 500 mL.
Stock solutions of test compounds were prepared in DMSO at a concentration of 1 mM.
From the above mix, 70 μL was added to individual wells of 96 well reaction plates and pre-incubated at 37° C. for 5 min. […] Reactions without NADPH and buffer controls (minus NADPH) at 0 minutes and 60 minutes were also incubated to rule out non-NADPH metabolism or chemical instability in the incubation buffer. All reactions were terminated using 100 μL of ice-cold acetonitrile containing internal standard (glipizide) at 0, 5, 15, 30 and 60 minutes.
Samples were monitored for parent compounds disappearance in MRM mode using LC-MS/MS.
The percent remaining of test compounds and positive control in each sample was determined by considering peak area ratio in the 0 minute sample as 100%.
In vitro intrinsic clearance (CL'int) (units in mL/min/kg) was also calculated.

phospho-RB = assay: Western blotting of phospho-RB levels in GBM spheres; format: cell-based, human; settings: for phospho-RB (pRB) levels: GBM spheres, 72 hours, Western blotting
Procedure: Cells were lysed in Cell Lysis Buffer (Cell Signaling, #9803) supplemented with Protease Inhibitor Cocktail (Sigma, #P8340), sonicated briefly while on ice and spun down for 30 minutes at 4° C., after which the supernatant was collected. For each sample, 2 uL of lysate was mixed well into 198 uL de-ionized water. Next, 10 uL of this diluted sample was added to a well in a 96 well plate in quadruplets and mixed with Protein Assay Dye Reagent Concentrate (Bio-Rad, #500-0006) (which was diluted 1:5 with water). BSA standards of 25 ng, 50 ng, 100 ng, 200 ng and 250 ng were also used to the plate and mixed with the reagent. The plate was read in a plate reader at 600 nm and samples were calibrated to the standards to determine the concentration of protein. Using the NuPAGE system (Invitrogen), 25 ug of protein was mixed with NuPAGE LDS 4× Sample Buffer (#NP0007), NuPAGE 10× Reducing Agent (#NP0004) and water, mixed well and heated at 96° C. for 15 minutes to denature the protein. The samples were then loaded into 4-12% Bis-Tris gels (Novex (Invitrogen), #0323) with a protein ladder (Novex (Invitrogen) Sharp Pre-stained protein ladder, #57318) and run at 100-120V for about 2 hours with NuPAGE 20×SDS MES Running Buffer (#NP0002) diluted with water. Next, the gel was taken out and loaded into a NuPAGE transfer cassette with a polyvinylidene membrane with NuPAGE 20× Transfer Buffer (#NP0006-1) diluted with water and methanol. Proteins were transferred for 1 hour at 30V at room temperature. Blocking was performed using the Millipore SNAP i.d. Protein Detection system in 0.25% non-fat dry milk in 0.1% Tween in PBS (PBST). Primary antibodies against BMI1 (Cell Signaling, #6964), mouse monoclonal antiphospho-RB, anti-CDK4, anti-STAT1, anti-PD-L1 (1:1,000) (Millipore), and housekeeping control rabbit polyclonal anti-vinculin (1:1000) (Cell Signaling) were incubated overnight with gentle rocking at 4° C. in the blocking solution. The following day, membranes were washed 3 times with PBST in the SNAP i.d. system before being incubated with secondary antibody in blocking buffer for 1 hour at room temperature. Three washes were then performed in the SNAP i.d. system. Protein signals were detected using ECL Western Blotting Substrate (Pierce, #32106) and filmed.
GBM CSCs are known to be quiescent and therefore resistant to standard chemo/radiotherapy. The retinoblastoma (Rb) tumor suppressor protein regulates cell proliferation by controlling progression through the restriction point within the G1-phase of the cell cycle. Cell cycle-dependent phosphorylation for Ser780 by cyclin D1-CDK4/6 inhibits Rb target binding and allows cell cycle progression.

| SMILES | % Remaining at 60 min (Buffer) (in vitro) [%] | CLh, int (in vitro) [mL/min/kg] | Percentage turnover in MLM (percent remaining), 0 min (in vitro) [%] | Percentage turnover in MLM (percent remaining), 5 min (in vitro) [%] | Percentage turnover in MLM (percent remaining), 15 min (in vitro) [%] | Percentage turnover in MLM (percent remaining), 30 min (in vitro) [%] | % Remaining at 60 min (+NADPH) (in vitro) [%] | % Remaining at 60 min (−NADPH) (in vitro) [%] | Percentage turnover in MLM (percent remaining), 60 min (in vitro) [%] | Metabolic stability in liver microsomes, compound remaining (in vitro) [%] | half-life at 1 μM (in vitro) [min] | phospho-RB levels, time-course (phospho-RB; 7-10 nM, time-course of 120 hours) | phospho-RB (pRB) levels (phospho-RB) |
| --- | --- | --- | --- | --- | --- | --- | --- | --- | --- | --- | --- | --- | --- |
| COc1c(F)cc(Nc2nc(-c3c(C)nc4ccccn34)cs2)cc1F [Compound 14, hydrochloride] | 66 | 550 | 100 | 88 | 62 | 36 | 13 | 33 | 13 | < 50 | 20 | downregulation of phospho-RB levels | lowered pRB |
| [2H]C([2H])([2H])Oc1ccc(Nc2nc(-c3c(C)nc4ccccn34)cs2)cc1 [Compound 15, N-(4-(methoxy-d3)phenyl)-4-(2-methylimidazo[1,2-c]pyridin-3-yl)thiazol-2-amine hydrochloride] | 85 | 215 | 100 | 100 | 98 | 67 | 48 | 93 | 48 | < 50 | 52 |  | lowered pRB |
| Cc1nc2ccccn2c1-c1csc(Nc2ccc3c(c2)OC(F)(F)O3)n1 [Compound 16, N-(2,2-difluorobenzo[d][1,3]dioxol-5-yl)-4-(2-methylimidazo[1,2-a]pyridin-3-yl)thiazol-2-amine hydrochloride] | 87 | 759 | 100 | 83 | 58 | 35 | 6 | 62 | 6 | < 50 | 15 |  |  |
| [2H]C1([2H])Oc2ccc(Nc3nc(-c4c(C)nc5ccccn45)cs3)cc2O1 [Compound 17, N-(benzo[d][1,3]dioxol-5-yl-2,2-d2)-4-(2-methylimidazo[1,2-c]pyridin-3-yl)thiazol-2-amine hydrochloride] | 101 | 953 | 100 | 91 | 56 | 20 | 3 | 81 | 3 | < 50 | 12 |  | lowered pRB |
